# According to the supplement of paper PMC10307832:
# Tests used:
# Test in all cases: relative viability (nuclei count vs DMSO), 5 days (fraction); higher = more cells survive
# NCI-H1793 = test system: NCI-H1793
# Summary of the method: (§1)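 After 5 days of treatment, lung cancer cells in 1536-well plates were fixed and stained in a single step (final 0.05% Triton X-100, 1% formaldehyde, 1 ug/ml Hoechst) and their nuclei counted on 4× images. Treatment had been applied by pin tool the day after seeding as one drug alone or as a fixed anchor-drug dose with five library-drug doses (not always all listed) in √10 steps. Relative viability is the nuclei count of treated wells divided by that of vehicle wells, and values are medians of duplicate plates.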
# A-427 = test system: A-427
# Summary of the method: as §1
# NCI-H727 = test system: NCI-H727
# Summary of the method: as §1
# NCI-H596 = test system: NCI-H596
# Summary of the method: as §1
# H3255 = test system: H3255
# Summary of the method: as §1
# SW 1573 = test system: SW 1573
# Summary of the method: as §1
# LC-2-ad = test system: LC-2-ad
# Summary of the method: as §1
# COR-L23 = test system: COR-L23
# Summary of the method: as §1
# LK-2 = test system: LK-2
# Summary of the method: as §1
# LU99A = test system: LU99A
# Summary of the method: as §1
# NCI-H1563 = test system: NCI-H1563
# Summary of the method: as §1
# NCI-H2228 = test system: NCI-H2228
# Summary of the method: as §1
# LCLC-103H = test system: LCLC-103H
# Summary of the method: as §1
# NCI-H1650 = test system: NCI-H1650
# Summary of the method: as §1
# PC-14 = test system: PC-14
# Summary of the method: as §1
# LCLC-97TM1 = test system: LCLC-97TM1
# Summary of the method: as §1
# NCI-H460 = test system: NCI-H460
# Summary of the method: as §1
# 201T = test system: 201T
# Summary of the method: as §1
# NCI-H2347 = test system: NCI-H2347
# Summary of the method: as §1
# SW 900 = test system: SW 900
# Summary of the method: as §1
# NCI-H23 = test system: NCI-H23
# Summary of the method: as §1
smiles,measurement,setting,value
COc1cc2nccc(Oc3ccc(NC(=O)Nc4cc(C)on4)c(Cl)c3)c2cc1OC [Tivozanib] + Cc1nc(Nc2ncc(C(=O)Nc3c(C)cccc3Cl)s2)cc(N2CCN(CCO)CC2)n1 [Dasatinib] (partner 0.075 µM),relative viability,NCI-H1793; first compound 0.005 µM,0.351
same,relative viability,NCI-H1793; first compound 0.01581 µM,0.355
same,relative viability,NCI-H1793; first compound 0.05 µM,0.388
same,relative viability,NCI-H1793; first compound 0.1581 µM,0.204
same,relative viability,NCI-H1793; first compound 0.5 µM,0.428
same,relative viability,A-427; first compound 0.005 µM,0.645
same,relative viability,A-427; first compound 0.01581 µM,0.669
same,relative viability,A-427; first compound 0.05 µM,0.699
same,relative viability,A-427; first compound 0.1581 µM,0.538
same,relative viability,A-427; first compound 0.5 µM,0.686
same,relative viability,NCI-H727; first compound 0.005 µM,0.339
same,relative viability,NCI-H727; first compound 0.01581 µM,0.33
same,relative viability,NCI-H727; first compound 0.05 µM,0.44
same,relative viability,NCI-H727; first compound 0.1581 µM,0.328
same,relative viability,NCI-H727; first compound 0.5 µM,0.451
same,relative viability,NCI-H596; first compound 0.005 µM,0.55
same,relative viability,NCI-H596; first compound 0.01581 µM,0.591
same,relative viability,NCI-H596; first compound 0.05 µM,0.575
same,relative viability,NCI-H596; first compound 0.5 µM,0.522
same,relative viability,H3255; first compound 0.005 µM,0.316
same,relative viability,H3255; first compound 0.01581 µM,0.432
same,relative viability,H3255; first compound 0.05 µM,0.347
same,relative viability,H3255; first compound 0.1581 µM,0.345
same,relative viability,H3255; first compound 0.5 µM,0.326
same,relative viability,SW 1573; first compound 0.005 µM,0.534
same,relative viability,SW 1573; first compound 0.01581 µM,0.566
same,relative viability,SW 1573; first compound 0.05 µM,0.46
same,relative viability,SW 1573; first compound 0.1581 µM,0.513
same,relative viability,SW 1573; first compound 0.5 µM,0.381
same,relative viability,LC-2-ad; first compound 0.005 µM,0.458
same,relative viability,LC-2-ad; first compound 0.01581 µM,0.504
same,relative viability,LC-2-ad; first compound 0.05 µM,0.615
same,relative viability,LC-2-ad; first compound 0.1581 µM,0.268
same,relative viability,LC-2-ad; first compound 0.5 µM,0.208
same,relative viability,COR-L23; first compound 0.005 µM,0.484
same,relative viability,COR-L23; first compound 0.01581 µM,0.515
same,relative viability,COR-L23; first compound 0.05 µM,0.462
same,relative viability,COR-L23; first compound 0.1581 µM,0.485
same,relative viability,COR-L23; first compound 0.5 µM,0.452
same,relative viability,LK-2; first compound 0.005 µM,0.226
same,relative viability,LK-2; first compound 0.01581 µM,0.29
same,relative viability,LK-2; first compound 0.05 µM,0.289
same,relative viability,LK-2; first compound 0.1581 µM,0.214
same,relative viability,LK-2; first compound 0.5 µM,0.23
same,relative viability,LU99A; first compound 0.005 µM,0.356
same,relative viability,LU99A; first compound 0.01581 µM,0.599
same,relative viability,LU99A; first compound 0.05 µM,0.656
same,relative viability,LU99A; first compound 0.1581 µM,0.489
same,relative viability,LU99A; first compound 0.5 µM,0.474
same,relative viability,NCI-H1563; first compound 0.005 µM,0.455
same,relative viability,NCI-H1563; first compound 0.01581 µM,0.463
same,relative viability,NCI-H1563; first compound 0.05 µM,0.466
same,relative viability,NCI-H1563; first compound 0.1581 µM,0.441
same,relative viability,NCI-H1563; first compound 0.5 µM,0.488
same,relative viability,NCI-H2228; first compound 0.005 µM,0.431
same,relative viability,NCI-H2228; first compound 0.01581 µM,0.532
same,relative viability,NCI-H2228; first compound 0.05 µM,0.551
same,relative viability,NCI-H2228; first compound 0.1581 µM,0.445
same,relative viability,NCI-H2228; first compound 0.5 µM,0.524
same,relative viability,LCLC-103H; first compound 0.005 µM,0.459
same,relative viability,LCLC-103H; first compound 0.01581 µM,0.524
same,relative viability,LCLC-103H; first compound 0.05 µM,0.513
same,relative viability,LCLC-103H; first compound 0.1581 µM,0.433
same,relative viability,LCLC-103H; first compound 0.5 µM,0.469
same,relative viability,NCI-H1650; first compound 0.005 µM,0.309
same,relative viability,NCI-H1650; first compound 0.01581 µM,0.361
same,relative viability,NCI-H1650; first compound 0.05 µM,0.346
same,relative viability,NCI-H1650; first compound 0.1581 µM,0.27
same,relative viability,NCI-H1650; first compound 0.5 µM,0.267
same,relative viability,PC-14; first compound 0.005 µM,0.224
same,relative viability,PC-14; first compound 0.01581 µM,0.25
same,relative viability,PC-14; first compound 0.05 µM,0.255
same,relative viability,PC-14; first compound 0.1581 µM,0.316
same,relative viability,PC-14; first compound 0.5 µM,0.239
same,relative viability,LCLC-97TM1; first compound 0.005 µM,0.941
same,relative viability,LCLC-97TM1; first compound 0.01581 µM,0.855
same,relative viability,LCLC-97TM1; first compound 0.05 µM,0.923
same,relative viability,LCLC-97TM1; first compound 0.1581 µM,0.921
same,relative viability,LCLC-97TM1; first compound 0.5 µM,0.836
same,relative viability,NCI-H460; first compound 0.005 µM,0.401
same,relative viability,NCI-H460; first compound 0.01581 µM,0.486
same,relative viability,NCI-H460; first compound 0.05 µM,0.549
same,relative viability,NCI-H460; first compound 0.1581 µM,0.551
same,relative viability,NCI-H460; first compound 0.5 µM,0.529
same,relative viability,201T; first compound 0.005 µM,0.536
same,relative viability,201T; first compound 0.01581 µM,0.566
same,relative viability,201T; first compound 0.05 µM,0.6
same,relative viability,201T; first compound 0.1581 µM,0.57
same,relative viability,201T; first compound 0.5 µM,0.553
same,relative viability,NCI-H2347; first compound 0.01581 µM,0.308
same,relative viability,NCI-H2347; first compound 0.05 µM,0.294
same,relative viability,NCI-H2347; first compound 0.5 µM,0.281
same,relative viability,SW 900; first compound 0.005 µM,0.566
same,relative viability,SW 900; first compound 0.01581 µM,0.53
same,relative viability,SW 900; first compound 0.05 µM,0.67
same,relative viability,SW 900; first compound 0.1581 µM,0.426
same,relative viability,SW 900; first compound 0.5 µM,0.45
same,relative viability,NCI-H23; first compound 0.005 µM,0.693
same,relative viability,NCI-H23; first compound 0.01581 µM,0.707
same,relative viability,NCI-H23; first compound 0.05 µM,0.769
same,relative viability,NCI-H23; first compound 0.1581 µM,0.389
same,relative viability,NCI-H23; first compound 0.5 µM,0.753
